# Biological target: T1, AHR (UniProt P35869)
# T1 sequence (P35869 1-848): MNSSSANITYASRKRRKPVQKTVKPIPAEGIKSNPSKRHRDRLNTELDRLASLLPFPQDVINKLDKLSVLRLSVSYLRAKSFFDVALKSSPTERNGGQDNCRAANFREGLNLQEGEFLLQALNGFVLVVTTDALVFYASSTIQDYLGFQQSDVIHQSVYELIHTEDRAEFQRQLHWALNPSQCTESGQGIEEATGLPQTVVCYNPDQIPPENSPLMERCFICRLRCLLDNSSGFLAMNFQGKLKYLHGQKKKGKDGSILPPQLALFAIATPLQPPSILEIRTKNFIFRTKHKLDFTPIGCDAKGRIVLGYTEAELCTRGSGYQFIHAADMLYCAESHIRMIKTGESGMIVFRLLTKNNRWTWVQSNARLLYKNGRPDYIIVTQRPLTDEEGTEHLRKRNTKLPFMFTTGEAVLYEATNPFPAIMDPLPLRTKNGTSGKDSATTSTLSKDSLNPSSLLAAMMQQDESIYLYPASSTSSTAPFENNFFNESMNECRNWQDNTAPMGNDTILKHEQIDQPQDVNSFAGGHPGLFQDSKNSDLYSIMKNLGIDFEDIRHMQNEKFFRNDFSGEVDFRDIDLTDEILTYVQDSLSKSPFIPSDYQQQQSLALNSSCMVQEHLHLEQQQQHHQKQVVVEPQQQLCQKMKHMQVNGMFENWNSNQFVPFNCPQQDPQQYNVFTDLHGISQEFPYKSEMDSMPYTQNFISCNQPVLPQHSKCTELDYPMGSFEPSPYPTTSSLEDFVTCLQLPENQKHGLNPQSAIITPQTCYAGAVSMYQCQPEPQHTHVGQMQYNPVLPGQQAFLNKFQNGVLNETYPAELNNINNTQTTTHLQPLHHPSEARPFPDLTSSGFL
# Experiment: DRE-Luciferase Reporter Assay (Alternate Method, Example 1B)
# Format: cell-based
# Set-up: IC50; other: alternate method: compound and agonist added at plating or after overnight incubation; murine (Hepa1-6, He)
# Conditions: alternate method: compound and agonist added at plating or after overnight incubation; murine (Hepa1-6, Hepa-1c1c7) or human (HepG2) DRE-luciferase reporter cells, cell line used not stated
# Method: AHR binds to Dioxin Responsive Elements (DRE) upstream of genes that it activates. One measure of AHR activity is activation of a reporter gene, such as luciferase, downstream of one or multiple DRE elements. Luciferase activity will reflect activation and inhibition of AHR in the cells expressing his reporter.
# Murine Hepa1-6 or Hepa-1c1c7 or other murine cell line with a DRE-luciferase reporter either stably or transiently transfected were plated in media in plates (96-well, 384-well or other plates) and incubated overnight at 37° C. in a CO2 incubator or compound and agonist were added at the time of plating. Likewise, human HepG2 or other human cell line with a DRE-luciferase reporter either stably or transiently transfected were plated in media in plates (96-well, 384-well or other plates) and incubated overnight at 37° C. in a CO2 incubator or compound and agonist were added at the time of plating.
# At the time that cells are plated or following incubation overnight, an AHR activating ligand, such as TCDD, kynurenine, ITE (2-(1H-indole-3-ylcarbonyl)-4-thiazolecarboxylic methyl ester), VAF347, BNF (beta-naphthoflavone), FICZ (6-formylindolo(3,2-b) carbazole or other AHR ligands, was added with or without AHR antagonist.
# Cells were incubated for 4, 15 or 24 hours or another time point and then lysed for determination of luciferase activity as a read-out of the AHR activation or inhibition. Luciferase was measured with a commercial kit such as the Promega Luciferase kit or any kit or reagents that provide the luciferin substrate for measuring luciferase activity. The level of luciferase with only activating ligand added was the maximum signal while the luciferase with no ligand was the minimum signal. IC50 values were determined as the concentration which inhibits half of the luciferase activity.
row,Compound,IC50 [µM]
1,Cc1cc(C2CC2c2ccccc2)ccc1NC(=O)c1ccnn1C (stereo not drawn) [I-71],> 1.5
2,"Cc1cc(C#Cc2cccnc2)ccc1NC(=O)c1ccnn1C [I-56, 2-Methyl-N-[2-methyl-4-[2-(3-pyridyl)ethynyl]phenyl]pyrazole-3-carboxamide]",> 1.5
3,"Cn1nccc1C(=O)Nc1ccc2cc(-c3cccc(N4CCOCC4)c3)cnc2c1 [I-85, 2-Methyl-N-[3-(3-morpholinophenyl)-7-quinolyl]pyrazole-3-carboxamide]",> 1.5
4,Cc1ccccc1/C=C/c1ccc(C(=O)Nc2ccnn2C)c(C)c1 [I-73],> 1.5
5,"CC(C)n1nccc1C(=O)Nc1ccc2cc(-c3ccccc3)cnc2c1 [I-76, 2-Isopropyl-N-(3-phenyl-7-quinolyl)pyrazole-3-carboxamide]",> 1.5
6,Cn1nccc1C(=O)Nc1ccc(C#Cc2ccccc2)cc1C(F)(F)F [I-62],> 1.5
7,Cc1ccccc1-c1cnc2ccc(NC(=O)c3ccnn3C)c(C)c2c1 [I-69],> 1.5
8,"Cn1nccc1C(=O)Nc1ccc2cc(-c3ccccc3N3CCOCC3)cnc2c1 [I-83, 2-Methyl-N-[3-(2-morpholinophenyl)-7-quinolyl]pyrazole-3-carboxamide]",> 1.5
9,"Cc1cc(C#CC2CCNCC2)ccc1NC(=O)c1ccnn1C [I-57, 2-Methyl-N-[2-methyl-4-[2-(4-piperidyl)ethynyl]phenyl]pyrazole-3-carboxamide]",> 1.5
10,"Cc1ccccc1-c1ccc2cc(NC(=O)c3ccnn3C)ccc2c1 [I-52, 2-Methyl-N-[6-(o-tolyl)-2-naphthyl]pyrazole-3-carboxamide]",> 1.5
11,"Cc1cc(C#CC2CCCCC2)ccc1NC(=O)c1ccnn1C [I-54, N-[4-(2-Cyclohexylethynyl)-2-methyl-phenyl]-2-methyl-pyrazole-3-carboxamide]",> 1.5
12,COc1ccccc1C#Cc1ccc(NC(=O)c2ccnn2C)c(C)c1 [I-64],> 1.5
13,"Cc1cc(C#Cc2ccncc2)ccc1NC(=O)c1ccnn1C [I-55, 2-Methyl-N-[2-methyl-4-[2-(4-pyridyl)ethynyl]phenyl]pyrazole-3-carboxamide]",> 1.5
14,"Cn1nccc1C(=O)Nc1ccc2cc(-c3ccc(O)cc3)cnc2c1 [I-86, N-[3-(4-Hydroxyphenyl)-7-quinolyl]-2-methyl-pyrazole-3-carboxamide]",> 1.5
15,"CC(=O)Nc1ccc2cc(-c3ccccc3)cnc2c1 [I-47, N-(3-Phenyl-7-quinolyl)acetamide]",> 1.5
16,"Cn1cncc1C(=O)Nc1ccc2cc(-c3ccccc3)cnc2c1 [I-79, 3-Methyl-N-(3-phenyl-7-quinolyl)imidazole-4-carboxamide]",> 1.5
17,Cc1ccccc1-c1ccc2c(C)c(NC(=O)c3ccnn3C)ccc2n1 [I-72],> 1.5
18,"CC#Cc1ccc(NC(=O)c2ccnn2C)c(C)c1 [I-61, 2-methyl-N-(2-methyl-4-prop-1-ynyl-phenyl)pyrazole-3-carboxamide]",> 1.5
19,"Cn1nccc1C(=O)Nc1ccc2c(=O)n(-c3ccccc3)cnc2c1 [I-77, 2-Methyl-N-(4-oxo-3-phenyl-quinazolin-7-yl)pyrazole-3-carboxamide]",> 1.5
20,"Cc1cc(C#Cc2ccccn2)ccc1NC(=O)c1ccnn1C [I-58, 2-Methyl-N-[2-methyl-4-[2-(2-pyridyl)ethynyl]phenyl]pyrazole-3-carboxamide]",> 1.5
21,"Cn1nccc1C(=O)Nc1ccc(C#Cc2ccccc2)c2c1OCO2 [I-59, 2-Methyl-N-[7-(2-phenylethynyl)-1,3-benzodioxol-4-yl]pyrazole-3-carboxamide]",> 1.5
22,Cc1c(NC(=O)c2ccnn2C)ccc2nc(-c3ccccc3)ccc12 [I-68],> 1.5

# The remaining lines, values ahead:
row,IC50 [µM],Compound
1,> 1.5,"Cc1cc(C#Cc2cccc3c2OCO3)ccc1NC(=O)c1ccnn1C [I-53, N-[4-[2-(1,3-Benzodioxol-4-yl)ethynyl]-2-methyl-phenyl]-2-methyl-pyrazole-3-carboxamide]"
2,> 1.5,"Cn1nccc1C(=O)Nc1ccc2cc(-c3ccc(N4CCOCC4)cc3)cnc2c1 [I-80, 2-Methyl-N-[3-(4-morpholinophenyl)-7-quinolyl]pyrazole-3-carboxamide]"
3,0.5 to 1,Cc1cc(/C=C/c2ccccc2)ccc1N(C)C(=O)c1ccnn1C [I-66]
4,> 1.5,"COc1cc(C#Cc2ccccc2)ccc1NC(=O)c1ccnn1C [I-60, N-[2-Methoxy-4-(2-phenylethynyl)phenyl]-2-methyl-pyrazole-3-carboxamide]"
5,> 1.5,"Cn1nccc1C(=O)Nc1ccc(C#Cc2ccccc2)cc1 [I-63, 2-Methyl-N-[4-(2-phenylethynyl)phenyl]pyrazole-3-carboxamide]"
6,> 1.5,"Cn1nccc1C(=O)Nc1ccc2cc(-c3ccccc3C(F)(F)F)cnc2c1 [I-88, 2-Methyl-N-[3-[2-(trifluoromethyl)phenyl]-7-quinolyl]pyrazole-3-carboxamide]"
7,< 0.5,"Cn1nccc1C(=O)Nc1ccc2cc(-c3cccs3)cnc2c1 [I-46, 2-Methyl-N-[3-(2-thienyl)-7-quinolyl]pyrazole-3-carboxamide]"
8,> 1.5,"Cn1nccc1C(=O)Nc1ccc2cc(-c3ccc(C(F)(F)F)cc3)cnc2c1 [I-87, 2-Methyl-N-[3-[4-(trifluoromethyl)phenyl]-7-quinolyl]pyrazole-3-carboxamide]"
9,> 1.5,"Cn1nccc1C(=O)Nc1ccc2cc(C3CCCCC3)cnc2c1 [I-49, N-(3-Cyclohexyl-7-quinolyl)-2-methyl-pyrazole-3-carboxamide]"
10,< 0.5,"Cc1ccccc1-c1cnc2cc(NC(=O)c3ccnn3C)ccc2c1 [I-51, 2-Methyl-N-[3-(o-tolyl)-7-quinolyl]pyrazole-3-carboxamide]"
11,> 1.5,Cc1cc(/N=N/c2cccc3cccnc23)ccc1NC(=O)c1ccnn1C [I-74]
12,> 1.5,"Cn1nccc1C(=O)Nc1ccc2cccnc2c1 [I-50, 2-Methyl-N-(7-quinolyl)pyrazole-3-carboxamide]"
13,< 0.5,"Cn1nccc1C(=O)Nc1ccc2cc(-c3cccc(C(F)(F)F)c3)cnc2c1 [I-84, 2-Methyl-N-[3-[3-(trifluoromethyl)phenyl]-7-quinolyl]pyrazole-3-carboxamide]"
14,0.5 to 1,Cn1nccc1C(=O)Nc1cnc2cc(-c3ccccc3)ccc2c1 [I-67]
15,0.5 to 1,"Cn1nccc1C(=O)Nc1ccc2cc(-c3ncco3)cnc2c1 [I-45, 2-Methyl-N-(3-oxazol-2-yl-7-quinolyl)pyrazole-3-carboxamide]"
16,1 to 1.5,"Cn1nccc1C(=O)Nc1ccc2cc(-c3ccccc3O)cnc2c1 [I-81, N-[3-(2-Hydroxyphenyl)-7-quinolyl]-2-methyl-pyrazole-3-carboxamide]"
17,1 to 1.5,"Cn1nccc1C(=O)Nc1ccc2cc(-c3cccc(O)c3)cnc2c1 [I-82, N-[3-(3-Hydroxyphenyl)-7-quinolyl]-2-methyl-pyrazole-3-carboxamide]"
18,< 0.5,"Cn1nccc1C(=O)Nc1ccc2cc(-c3nccs3)cnc2c1 [I-44, 2-Methyl-N-(3-thiazol-2-yl-7-quinolyl)pyrazole-3-carboxamide]"
19,< 0.5,Cn1nccc1C(=O)Nc1ccc2cc(-c3ccccc3)cnc2c1 [I-70]
20,0.5 to 1,"O=C(Nc1ccc2cc(-c3ccccc3)cnc2c1)c1ccn[nH]1 [I-78, N-(3-Phenyl-7-quinolyl)-1H-pyrazole-5-carboxamide]"
21,0.5 to 1,Cn1nccc1C(=O)Nc1ccc2nc(-c3ccccc3)cnc2c1 [I-65]
22,< 0.5,"Cn1nccc1C(=O)Nc1ccc2cc(-c3ccsc3)cnc2c1 [I-48, 2-Methyl-N-[3-(3-thienyl)-7-quinolyl]pyrazole-3-carboxamide]"
23,0.5 to 1,Cc1cc(/N=N/c2cccc3ccccc23)ccc1NC(=O)c1ccnn1C [I-75]

# Reference: patent US11555026B2, “AHR inhibitors and uses thereof” (Ikena Oncology, Inc., priority 2017, dated 2023)
